Measurements from US20260356835A1, “BICYCLIC HETEROARYL COMPOUNDS” (QuantX Biosciences US, Inc., priority 2023, published 2026).

How the values were obtained:
[1] = biological target: T1, N-his8-TEV-hPARG (389-976) (Homo sapiens, UniProt Q86W56); assay: PARG Biochemical Enzymatic Assay (PARG inhibition HTRF assay); conditions: 62.5 pM PARG, 5 nM Biotin-Parylated PARP1 substrate, 60 minutes preincubation, 10 minutes reaction at 23 °C
T1 construct: N-his8-TEV-hPARG (389-976); His8 (N); TEV protease cleavage site (N); made in house; host or cells: E. coli BL21(DE3)
T1 sequence (Q86W56 389-976): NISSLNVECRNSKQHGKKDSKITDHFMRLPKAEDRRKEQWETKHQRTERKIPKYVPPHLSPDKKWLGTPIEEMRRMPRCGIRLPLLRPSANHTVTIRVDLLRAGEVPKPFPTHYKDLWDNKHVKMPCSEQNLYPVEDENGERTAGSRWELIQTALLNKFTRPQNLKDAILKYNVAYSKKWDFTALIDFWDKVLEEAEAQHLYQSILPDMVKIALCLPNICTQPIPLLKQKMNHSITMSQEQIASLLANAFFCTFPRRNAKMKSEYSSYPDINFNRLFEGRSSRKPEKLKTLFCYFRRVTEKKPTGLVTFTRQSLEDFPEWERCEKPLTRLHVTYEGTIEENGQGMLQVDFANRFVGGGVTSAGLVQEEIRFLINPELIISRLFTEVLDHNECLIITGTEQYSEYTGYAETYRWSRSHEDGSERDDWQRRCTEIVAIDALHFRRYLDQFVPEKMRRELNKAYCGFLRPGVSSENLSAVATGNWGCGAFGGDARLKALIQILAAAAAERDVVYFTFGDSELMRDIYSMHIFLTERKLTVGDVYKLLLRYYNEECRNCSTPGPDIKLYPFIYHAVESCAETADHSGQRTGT
Procedure: PARG Biochemical Enzymatic Assay
TEV-His8-PolyADP-Ribose Polymerase 1 (379-1014) (PARP1) and N-his8-TEV-hPARG (389-976) were used to transform BL21(DE3) competent cells followed by growth for 1 hour at 37 °C and plating on Kanamycin resistant agar plates. A single colony was then inoculated into 1 ml of Luria Broth and expansion into a 1 liter scale for growth at 37 °C for 3 hours. Expression was induced via 0.2 mM IPTG induction for 20 hours at 16 °C in BL21(DE3) E. coli. Purification was then performed using a Nickel column, size exclusion chromatography and HPLC analysis.
For substrate preparation, […] nicked DNA and 2 μM PARP1 protein were mixed for 10 minutes at 25 °C 10 μM biotin-NAD+ and 100 μM NAD+ were then added and incubated for 60 minutes at 30 °C to yield PARylated PARP1 substrate.
For compound screening, compounds were serially diluted to a 3× final concentration in assay buffer (Tris pH7.5 50 mM, KCl 50 mM, Tween-20 0.01%, BSA 0.1 mg/ml, EDTA 3 mM, EGTA 0.4 mM, DTT 1 mM) containing 1% DMSO. A top concentration of 1.5 μM for a 10-point dose response curve using a 1:3 dilution curve was used. 2.5×PARG (156.25 pM working concentration, 62.5 pM final concentration) was prepared in assay buffer and 4 ul added to a 384 well assay plate containing 2 μl of serially diluted compound. The plate was then centrifuged for 10 seconds and incubated for 60 minutes at 23 °C. 4 μl of 2.5× Biotin-Parylated PARP1 (12.5 nM working concentration, 5 nM final concentration) was then added to the plate and incubated for 10 minutes at 23 °C. 4 μl of […] Detection reagent containing 0.44 μg/ml of Streptavidin-Europium cryptate and 4 μg/ml of anti-6His-XL665 monoclonal antibody was added to the plate and incubated for 60 minutes at 23 °C. The Homogeneous Time Resolved Fluorescent (HTRF) signal was then measured on an Envision plate reader using and excitation wavelength of 337 nm and emission wavelengths of 615 nm and 665 nm. Normalized percent inhibition was then calculated using the following equation: % Inhibition normalized=(compound signal-min signal)/(max signal-min signal)*100%, where Maximum signal was substrate only wells and Minimum signal was enzyme and substrate well. IC50 was calculated by fitting % Inhibition values and log of compound concentrations to nonlinear regression (log(inhibitor) vs. response—Variable slope(four parameters)) with GraphPad 9.4.1
For biochemical activity, bracket is denoted as: A<100 nM; 100 nM<B<500 nM; C>500 nM

Kuramochi cells = assay: Cellular Viability Assay (5 day Kuramochi cell viability, CellTiter-Glo); assay type: cell-based; conditions: 5 days, 37 °C, growth inhibition relative to Day 0 (T0) and DMSO
Procedure: Kuramochi cells were seeded at a density of 1000 cells per well in a 384-well, white, sterile, clear bottom plate, using a Multidrop liquid dispenser and incubated for 24 hours at 37 °C in a 5% CO2 humidified environment. 24 hours later, compounds were added starting at a top dose of 10 μM for a 9-point dose response curve at a 1:3 dilution using an iDOT HT liquid handler and incubated for 5 days at 37 °C in a 5% CO2 humidified environment. After 5 days and at Day 0, plates were incubated at room temperature for 30 minutes followed by the addition of 30 μl of CellTiter-Glo Reagent. Plates were then mixed for 10 minutes on an orbital shaker followed by incubation at room temperature for 20 minutes. Luminescence was then read using the Envision plate reader. Percent Growth Inhibition was then calculated using the following equation: Percent Growth Inhibition normalized=100−(compound signal−T0)/(max signal−T0)*100%, where Max Signal refers to the DMSO only treated cells and T0 refers to the Day0 viability measurement. Growth Inhibition 50 was then calculated using the following equation: Y=Bottom+(Top−Bottom)/(1+10^((Log IC50−X)*hillslope)).
For cell activity, bracket is denoted as: A<1 uM; 1 uM<B<5 uM; C>5 uM.

| Compound | IC50 [1] | IC50 (Kuramochi cells) |
| --- | --- | --- |
| C#CC1(NS(=O)(=O)c2cc(N3CCC4(CC3)COC4)n3ncc(-c4nnc(C(F)F)s4)c3c2)CC1 [Example 4, 3-(5-(difluoromethyl)-1,3,4-thiadiazol-2-yl)-N-(1-ethynylcyclopropyl)-7-(2-oxa-7-azaspiro[3.5]nonan-7-yl)pyrazolo[1,5-a]pyridine-5-sulfonamide] | < 100 nM | < 1000 nM |
| CC1(NS(=O)(=O)c2cc(N3CCC4(CC3)COC4)n3ncc(-c4nnc(C5(F)CC5)s4)c3c2)CC1 [Example 12, 3-(5-(1-fluorocyclopropyl)-1,3,4-thiadiazol-2-yl)-N-(1-methylcyclopropyl)-7-(2-oxa-7-azaspiro[3.5]nonan-7-yl)pyrazolo[1,5-a]pyridine-5-sulfonamide] | < 100 nM | < 1000 nM |
| CC1(C(=O)N2CCN(c3cc(S(=O)(=O)NC4(C#N)CC4)cc4c(-c5nnc(C(F)F)s5)cnn34)CC2)CCC1 [Example 19, N-(1-cyanocyclopropyl)-3-[5-(difluoromethyl)-1,3,4-thiadiazol-2-yl]-7-[4-(1-methylcyclobutanecarbonyl)piperazin-1-yl]pyrazolo[1,5-a]pyridine-5-sulfonamide] | < 100 nM | < 1000 nM |
| CC(=O)N1CCN(c2cc(S(=O)(=O)NC3(C)CC3)cc3c2cnn3-c2nc3c(s2)C(=O)COC3)CC1 [Example 28, 4-(4-acetylpiperazin-1-yl)-N-(1-methylcyclopropyl)-1-(7-oxo-6,7-dihydro-4H-pyrano[3,4-d]thiazol-2-yl)-1H-indazole-6-sulfonamide] | 100 to 500 nM | > 5000 nM |
| CC1(NS(=O)(=O)c2cc(-n3cc(C4(C#N)CC4)cn3)c3cnn(-c4nnc(C5(O)CCC5)s4)c3c2)CC1 [Example 33, 4-(4-(1-cyanocyclopropyl)-1H-pyrazol-1-yl)-1-(5-(1-hydroxycyclobutyl)-1,3,4-thiadiazol-2-yl)-N-(1-methylcyclopropyl)-1H-indazole-6-sulfonamide] | 100 to 500 nM | 1000 to 5000 nM |
| O=S(=O)(NC1(C(F)F)CC1)c1cc(N2CCC3(CC2)COC3)n2cnc(-c3nnc(C(F)F)s3)c2c1 [Example 35, 1-(5-(difluoromethyl)-1,3,4-thiadiazol-2-yl)-N-(1-(difluoromethyl)cyclopropyl)-5-(2-oxa-7-azaspiro[3.5]nonan-7-yl)imidazo[1,5-a]pyridine-7-sulfonamide] | < 100 nM | < 1000 nM |
| Cc1nnc(N2CCN(c3cc(S(=O)(=O)NC4(C#N)CC4)cc4c(-c5nnc(C(F)F)s5)cnn34)CC2)o1 [Example 24, N-(1-cyanocyclopropyl)-3-[5-(difluoromethyl)-1,3,4-thiadiazol-2-yl]-7-[4-(5-methyl-1,3,4-oxadiazol-2-yl)piperazin-1-yl]pyrazolo[1,5-a]pyridine-5-sulfonamide] | < 100 nM | < 1000 nM |
| N#CC1(NS(=O)(=O)c2cc(N3CCN(C(=O)N4CC[C@H](F)C4)CC3)n3ncc(-c4nnc(C(F)F)s4)c3c2)CC1 [Example 22, (S)-N-(1-cyanocyclopropyl)-3-(5-(difluoromethyl)-1,3,4-thiadiazol-2-yl)-7-(4-(3-fluoropyrrolidine-1-carbonyl)piperazin-1-yl)pyrazolo[1,5-a]pyridine-5-sulfonamide] | < 100 nM | < 1000 nM |
| CC(C)OC(=O)N1CCN(c2cc(S(=O)(=O)NC3(C#N)CC3)cc3c(-c4nnc(C(F)F)s4)cnn23)CC1 [Example 17, Isopropyl 4-(5-(N-(1-cyanocyclopropyl)sulfamoyl)-3-(5-(difluoromethyl)-1,3,4-thiadiazol-2-yl)pyrazolo[1,5-a]pyridin-7-yl)piperazine-1-carboxylate] | < 100 nM | < 1000 nM |
| Cn1ccnc1N1CCN(c2cc(S(=O)(=O)NC3(C#N)CC3)cc3c(-c4nnc(C(F)F)s4)cnn23)CC1 [Example 16, N-(1-cyanocyclopropyl)-3-(5-(difluoromethyl)-1,3,4-thiadiazol-2-yl)-7-(4-(1-methyl-1H-imidazol-2-yl)piperazin-1-yl)pyrazolo[1,5-a]pyridine-5-sulfonamide] | < 100 nM | 1000 to 5000 nM |
| CC1(NS(=O)(=O)c2cc(N3CCC4(CC3)COC4)n3ncc(-c4nnc(C(F)(F)F)s4)c3c2)CC1 [Example 14, N-(1-methylcyclopropyl)-7-(2-oxa-7-azaspiro[3.5]nonan-7-yl)-3-(5-(trifluoromethyl)-1,3,4-thiadiazol-2-yl)pyrazolo[1,5-a]pyridine-5-sulfonamide] | < 100 nM | < 1000 nM |
| CC1(NS(=O)(=O)c2cc(N3CCC4(CC3)COC4)n3ncc(-c4nncs4)c3c2)CC1 [Example 5] | < 100 nM | < 1000 nM |
| CC1(NS(=O)(=O)c2cc(N3CCC4(CC3)COC4)n3ncc(-c4nnc(C(F)F)s4)c3c2)CC1 [Example 1, 3-(5-(difluoromethyl)-1,3,4-thiadiazol-2-yl)-N-(1-methylcyclopropyl)-7-(2-oxa-7-azaspiro[3.5]nonan-7-yl)pyrazolo[1,5-a]pyridine-5-sulfonamide] | < 100 nM | < 1000 nM |
| O=S(=O)(NC1(C(F)(F)F)CC1)c1cc(N2CCC3(CC2)COC3)n2ncc(-c3nnc(C(F)F)s3)c2c1 [Example 13, 3-[5-(difluoromethyl)-1,3,4-thiadiazol-2-yl]-7-(2-oxa-7-azaspiro[3.5]nonan-7-yl)-N-[1-(trifluoromethyl)cyclopropyl]pyrazolo[1,5-a]pyridine-5-sulfonamide] | 100 to 500 nM | 1000 to 5000 nM |
| N#CC1(NS(=O)(=O)c2cc(N3CCC4(CC3)COC4)n3ncc(-c4nnc(C(F)F)s4)c3c2)CC1 [Example 2, N-(1-cyanocyclopropyl)-3-(5-(difluoromethyl)-1,3,4-thiadiazol-2-yl)-7-(2-oxa-7-azaspiro[3.5]nonan-7-yl)pyrazolo[1,5-a]pyridine-5-sulfonamide] | < 100 nM | < 1000 nM |
| N#CC1(NS(=O)(=O)c2cc(C3CCN(C(=O)C4CC4)CC3)n3ncc(-c4nnc(C(F)F)s4)c3c2)CC1 [Example 11, N-(1-cyanocyclopropyl)-7-[1-(cyclopropanecarbonyl)-4-piperidyl]-3-[5-(difluoromethyl)-1,3,4-thiadiazol-2-yl]pyrazolo[1,5-a]pyridine-5-sulfonamide] | < 100 nM | < 1000 nM |
| Cc1nnc(N2CCN(c3cc(S(=O)(=O)NC4(C#N)CC4)cc4c(-c5nnc(C(F)F)s5)cnn34)CC2)s1 [Example 20, N-(1-cyanocyclopropyl)-3-[5-(difluoromethyl)-1,3,4-thiadiazol-2-yl]-7-[4-(5-methyl-1,3,4-thiadiazol-2-yl)piperazin-1-yl]pyrazolo[1,5-a]pyridine-5-sulfonamide] | < 100 nM | < 1000 nM |
| O=S(=O)(NC1(C(F)F)CC1)c1cc(N2CCC3(CC2)COC3)c2cnc(-c3nnc(C(F)F)s3)n2c1 [Example 39, 3-(5-(difluoromethyl)-1,3,4-thiadiazol-2-yl)-N-(1-(difluoromethyl)cyclopropyl)-8-(2-oxa-7-azaspiro[3.5]nonan-7-yl)imidazo[1,5-a]pyridine-6-sulfonamide] | < 100 nM | < 1000 nM |
| CCCS(=O)(=O)N1CCN(c2cc(S(=O)(=O)NC3(C#N)CC3)cc3c(-c4nnc(C(F)F)s4)cnn23)CC1 [Example 18, N-(1-cyanocyclopropyl)-3-(5-(difluoromethyl)-1,3,4-thiadiazol-2-yl)-7-(4-(propylsulfonyl)piperazin-1-yl)pyrazolo[1,5-a]pyridine-5-sulfonamide] | < 100 nM | < 1000 nM |
